Patent publication US20160355530A1, “HEPATITIS C INHIBITORS AND USES THEREOF” (AbbVie Inc., priority 2010, published 2016)
Like-named read-outs stand apart in the source and are kept apart here.

Assays:
[1] = target: T1, HCV NS5B polymerase 1b BK strain (Hepatitis C virus genotype 1b, UniProt P26663); assay: HCV NS5B polymerase enzymatic inhibition assay, strain 1b BK; type: biochemical; details: enzyme, strain 1b BK; read-out: HCV Polymerase Strain 1b BK IC50
T1 construct: six-histidine tag; made in house; host or cells: E. coli
Procedure: (§1) Purified HCV NS5B polymerase enzymes were used for polymerase inhibition assays. All recombinant HCV polymerases contained the first 570 amino acids of the 591 amino acid native protein sequence and a six-histidine tag at the N-terminus or C-terminus to facilitate purification by affinity chromatography. The DNA nucleotide sequence for the HCV polymerase 1b BK strain was codon optimized for expression in E. coli. A synthetic gene was prepared from a series of overlapping oligonucleotides that were filled in using a DNA polymerase and amplified by PCR. The patient isolate HCV polymerases were cloned by RT-PCR methods using HCV RNA extracted from the serum of infected subjects obtained from ProMedDx and BioCollections (genotypes 2a, 2b, 3a, and 4a). Laboratory strains were cloned from plasmid DNA (1a-H77 or 1a-H77-C316Y) or from existing replicon cells (1b Rice). In all cases the amplified DNA was cloned into a protein expression vector (typically a pET vector from Novagen) and then multiple clones were sequenced to identify one whose NS5B sequence agreed with the population sequence. This sequence-confirmed clone was then transfected into E. coli for protein expression and purification. E. coli cultures were grown to a maximum optical density (OD) of 2-3 and then induced with 0.4 mM isopropyl beta-D-thiogalactopyranoside (IPTG) and grown for 20 hours at 20° C.
(§2) Proteins were purified using nickel affinity chromatography, and additional column steps were added including, ion exchange, size exclusion, hydrophobic ion, and poly-U affinity chromatography, as needed, depending on the sample being purified. The template RNA used in the polymerase enzymatic assay was a 2.1 kb construct that corresponds to the 3′-end of an HCV genotype 1b negative strand RNA.
(§3) The reaction was initiated by the addition of 20 μM CTP, 20 μM ATP, 0.284 μM (0.5 μCi) of 5,6-[^3H] UTP, 5 nM template RNA and 0.1 U/μL RNase inhibitor (RNasin, Promega), and allowed to proceed for three hours at 30° C. The final reaction volume was 50 μL. The reaction was terminated by the addition of 50 uL of 4 mM spermine in 10 mM Tris-HCl, pH 7.5, 1 mM EDTA. The quenched reaction was allowed to incubate for at least 15 minutes at room temperature, and then the precipitated RNA was captured by filtration through a glass fiber filter (GF/B, Millipore) in a 96 well format. The filter plate was washed five times with 200 μL of 2 mM spermine, 10 mM Tris-HCl, pH 8.0, 1 mM EDTA, and two times with ethanol. After drying thoroughly in air, 30 μL of Microscint-20 scintillation cocktail (Perkin Elmer) was added to each well, and the retained cpm were determined by scintillation counting. IC50 values were determined by nonlinear regression.
(§4) % Inhibition=100*[[I]/([I]+[IC50])] equation 1
(§5) V=kcat[S]/2(Km+[S])*(sqrt((IC50+I−E)̂2+(4*IC50*E))−(IC50+I−E)) equation 2

[2] = tested on: HCV 1b-BB7 subgenomic replicon; assay: microbe, parasite or virus in culture; type: cell-based, HCV genotype 1b; details: Hepatitis C virus, stable replicon
[3] = target: T2, HCV NS5B polymerase 1a-H77 (Hepatitis C virus genotype 1a, UniProt P27958); assay: biochemical; design: species or system HCV genotype 1a; details: enzyme, strain 1a H77; read-out: HCV Polymerase Strain 1a H77 IC50
T2 construct: six-histidine tag; made in house; host or cells: E. coli
Procedure: as §1, §2, §3, §4, §5

[4] = tested on: HCV 1a-H77 subgenomic replicon; assay: microbe, parasite or virus in culture; type: cell-based, HCV genotype 1a; details: Hepatitis C virus, stable replicon
[5] = tested on: HCV NS5B polymerase 1a-H77-C316Y; assay: biochemical; design: species or system HCV genotype 1a; details: ratio of enzyme IC50s, 1a H77-C316Y / 1a H77
Procedure: as §1, §2, §3, §4, §5

[6] = target: T3, HCV NS5B polymerase 1a-H77-C316Y (Hepatitis C virus genotype 1a, UniProt P27958, C2736Y); assay: biochemical; design: species or system HCV genotype 1a
T3 construct: six-histidine tag; made in house; host or cells: E. coli
Procedure: as §1, §2, §3, §4, §5

[7] = strain 1b BB7, 5% FBS, no human plasma, read-out: 1b BB7 5% FBS EC50
[8] = strain 1b BB7, 5% FBS, read-out: 1b BB7 5% FBS EC50
[9] = 5% FBS, absence of human plasma, read-out: Stable Replicon 1a H77 5% FBS EC50
[10] = strain 1a H77, 5% FBS, no human plasma, read-out: 1a H77 5% FBS EC50
[11] = strain 1a H77, 5% FBS, read-out: 1a H77 5% FBS EC50
[12] = strain 1b BB7, 5% FBS + 40% human plasma, read-out: 1b BB7 5% FBS + 40% Human Plasma EC50
[13] = strain 1a H77, 5% FBS + 40% human plasma, read-out: 1a H77 5% FBS + 40% Human Plasma EC50

T1 sequence (P26663 2420-2989): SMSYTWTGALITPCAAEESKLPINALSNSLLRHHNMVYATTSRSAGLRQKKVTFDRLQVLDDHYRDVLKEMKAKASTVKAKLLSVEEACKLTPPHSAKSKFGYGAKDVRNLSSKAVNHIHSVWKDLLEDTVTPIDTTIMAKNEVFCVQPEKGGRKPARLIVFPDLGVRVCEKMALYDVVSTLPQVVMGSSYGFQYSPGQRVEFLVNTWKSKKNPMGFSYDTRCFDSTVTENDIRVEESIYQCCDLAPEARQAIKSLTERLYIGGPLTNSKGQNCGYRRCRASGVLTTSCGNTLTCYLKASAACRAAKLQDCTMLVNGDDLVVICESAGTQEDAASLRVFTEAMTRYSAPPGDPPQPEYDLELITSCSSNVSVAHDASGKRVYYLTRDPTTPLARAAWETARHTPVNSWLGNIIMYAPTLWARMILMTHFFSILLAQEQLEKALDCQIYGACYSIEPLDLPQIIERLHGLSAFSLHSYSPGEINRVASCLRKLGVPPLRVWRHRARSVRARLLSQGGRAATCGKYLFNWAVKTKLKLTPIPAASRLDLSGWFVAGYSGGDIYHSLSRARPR
T2 sequence (P27958 2421-2990): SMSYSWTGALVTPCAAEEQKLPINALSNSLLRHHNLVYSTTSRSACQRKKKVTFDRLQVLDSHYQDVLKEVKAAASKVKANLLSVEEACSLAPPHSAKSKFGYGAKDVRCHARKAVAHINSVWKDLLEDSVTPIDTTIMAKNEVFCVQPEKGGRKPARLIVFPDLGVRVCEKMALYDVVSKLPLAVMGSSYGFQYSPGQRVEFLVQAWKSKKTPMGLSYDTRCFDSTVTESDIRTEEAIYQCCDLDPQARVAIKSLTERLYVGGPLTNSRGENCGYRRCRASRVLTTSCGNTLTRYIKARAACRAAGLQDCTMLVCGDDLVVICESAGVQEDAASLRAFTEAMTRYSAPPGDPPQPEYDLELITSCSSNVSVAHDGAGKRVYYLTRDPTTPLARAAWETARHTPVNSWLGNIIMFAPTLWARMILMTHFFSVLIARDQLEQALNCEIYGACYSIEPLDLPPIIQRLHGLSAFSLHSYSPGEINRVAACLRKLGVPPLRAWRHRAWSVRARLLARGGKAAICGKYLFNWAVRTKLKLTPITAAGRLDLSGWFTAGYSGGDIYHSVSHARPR
T3 sequence (P27958 2421-2990 C2736Y): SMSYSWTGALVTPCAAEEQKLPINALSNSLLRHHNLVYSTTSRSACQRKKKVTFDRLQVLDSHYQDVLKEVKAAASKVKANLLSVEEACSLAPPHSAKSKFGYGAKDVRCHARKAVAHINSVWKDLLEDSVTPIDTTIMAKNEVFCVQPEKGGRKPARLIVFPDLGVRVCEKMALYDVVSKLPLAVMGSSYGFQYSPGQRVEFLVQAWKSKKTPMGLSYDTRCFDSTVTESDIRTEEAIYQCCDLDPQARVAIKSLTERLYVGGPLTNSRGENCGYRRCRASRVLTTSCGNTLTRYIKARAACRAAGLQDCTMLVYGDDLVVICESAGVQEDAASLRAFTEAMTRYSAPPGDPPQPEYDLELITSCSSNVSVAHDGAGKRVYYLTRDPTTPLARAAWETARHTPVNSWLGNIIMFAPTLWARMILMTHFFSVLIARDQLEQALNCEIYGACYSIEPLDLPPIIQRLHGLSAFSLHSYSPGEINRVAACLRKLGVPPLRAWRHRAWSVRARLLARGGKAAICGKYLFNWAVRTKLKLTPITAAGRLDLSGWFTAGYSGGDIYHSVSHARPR

| SMILES | IC50 [1] | EC50 [2, 7] | EC50 [2, 8] | IC50 [3] | EC50 [4, 9] | EC50 [4, 10] | EC50 [4, 11] | C316Y/1a Fold Resistance [5] | IC50 [6] | EC50 [2, 12] | EC50 [4, 13] |
| --- | --- | --- | --- | --- | --- | --- | --- | --- | --- | --- | --- |
| CS(=O)(=O)N(CN1C(=O)c2ccccc2C1=O)c1cc2oc(-c3ccc(F)cc3)c(-c3ncc[nH]3)c2cc1C1CC1 [Example 82, N-[5-cyclopropyl-2-(4-fluorophenyl)-3-(1H-imidazol-2-yl)-1-benzofuran-6-yl]-N-[(1,3-dioxo-1,3-dihydro-2H-isoindol-2-yl)methyl]methanesulfonamide] | 3 µM | 1.58 µM | 1.58 µM | 0.35 µM | 2.63 µM | 2.63 µM | 2.63 µM | – | – | – | – |
| CC(C)CCN(c1cc2oc(-c3ccc(F)cc3)c(C3=NOC(C)(C)N3)c2cc1C1CC1)S(C)(=O)=O [Example 152, N-[5-cyclopropyl-3-(5,5-dimethyl-4,5-dihydro-1,2,4-oxadiazol-3-yl)-2-(4-fluorophenyl)-1-benzofuran-6-yl]-N-(3-methylbutyl)methanesulfonamide] | 3.6 µM | 10 µM | 10 µM | 0.118 µM | 10 µM | 10 µM | 10 µM | – | – | – | – |
| COc1ccc(CN(c2cc3oc(-c4ccc(F)cc4)c(C4=NC(C)CN4)c3cc2C2CC2)S(C)(=O)=O)cc1 (centres unmarked) [Example 2a, N-[5-cyclopropyl-2-(4-fluorophenyl)-3-(4-methyl-4,5-dihydro-1H-imidazol-2-yl)-1-benzofuran-6-yl]-N-(4-methoxybenzyl)methanesulfonamide] | 0.055 µM | – | – | 0.015 µM | – | – | – | 15 fold | 0.224 µM | – | – |
| Cc1nc(-c2c(-c3ccc(F)cc3)oc3cc(NS(C)(=O)=O)c(C4CC4)cc23)[nH]c1C [Example 192, N-[5-cyclopropyl-3-(4,5-dimethyl-1H-imidazol-2-yl)-2-(4-fluorophenyl)-1-benzofuran-6-yl]methanesulfonamide] | 18 µM | – | – | 10.3 µM | – | – | – | – | – | – | – |
| CC(C)(C)[Si](C)(C)OCCCCN(c1cc2oc(-c3ccc(F)cc3)c(-c3ncc[nH]3)c2cc1C1CC1)S(C)(=O)=O [Example 42, N-(4-{[tert-butyl(dimethyl)silyl]oxy}butyl)-N-[5-cyclopropyl-2-(4-fluorophenyl)-3-(1H-imidazol-2-yl)-1-benzofuran-6-yl]methanesulfonamide] | 0.781 µM | 0.119 µM | 0.119 µM | 0.083 µM | 0.214 µM | 0.214 µM | 0.214 µM | – | – | 3.39 µM | 7.41 µM |
| CCCC1NC(c2c(-c3ccc(F)cc3)oc3cc(N(CCC(C)C)S(C)(=O)=O)c(C4CC4)cc23)=NO1 (centres unmarked) [Example 154, N-[5-cyclopropyl-2-(4-fluorophenyl)-3-(5-propyl-4,5-dihydro-1,2,4-oxadiazol-3-yl)-1-benzofuran-6-yl]-N-(3-methylbutyl)methanesulfonamide] | 63.3 µM | – | – | 21.3 µM | – | – | – | – | – | – | – |
| Cc1ccc(C)n1-c1ccc2c(-c3ncc[nH]3)c(-c3ccccc3)oc2c1 [Example 166, 2-[6-(2,5-dimethyl-1H-pyrrol-1-yl)-2-phenyl-1-benzofuran-3-yl]-1H-imidazole] | 7 µM | – | – | 1.6 µM | – | – | – | – | – | – | – |
| CC(C)CCN(c1cc2oc(-c3ccc(F)cc3)c(-c3nc(C(F)(F)F)c[nH]3)c2cc1C1CC1)S(C)(=O)=O [Example 171, N-{5-cyclopropyl-2-(4-fluorophenyl)-3-[4-(trifluoromethyl)-1H-imidazol-2-yl]-1-benzofuran-6-yl}-N-(3-methylbutyl)methanesulfonamide] | 88.7 µM | 9.27 µM | 9.27 µM | 2.86 µM | 7.62 µM | 7.62 µM | 7.62 µM | – | – | – | – |
| COc1ccc(CN(c2cc3oc(-c4ccc(F)cc4)c(C4=NOCC(=O)N4)c3cc2C2CC2)S(C)(=O)=O)cc1 [Example 160, N-[5-cyclopropyl-2-(4-fluorophenyl)-3-(5-oxo-5,6-dihydro-4H-1,2,4-oxadiazin-3-yl)-1-benzofuran-6-yl]-N-(4-methoxybenzyl)methanesulfonamide] | 0.93 µM | 0.604 µM | 0.604 µM | 0.11 µM | 2.16 µM | 2.16 µM | 2.16 µM | – | – | 9.28 µM | 10 µM |
| COc1ccc(CN(c2cc3oc(-c4ccc(F)cc4)c(-c4nc(C)c(C)[nH]4)c3cc2C2CC2)S(C)(=O)=O)cc1 [Example 186, N-[5-cyclopropyl-3-(4,5-dimethyl-1H-imidazol-2-yl)-2-(4-fluorophenyl)-1-benzofuran-6-yl]-N-(4-methoxybenzyl)methanesulfonamide] | 4.5 µM | – | – | 4.5 µM | – | – | – | – | – | – | – |
| CCC1NC(c2c(-c3ccc(F)cc3)oc3cc(N(CCC(C)C)S(C)(=O)=O)c(C4CC4)cc23)=NO1 (centres unmarked) [Example 155, N-[5-cyclopropyl-3-(5-ethyl-4,5-dihydro-1,2,4-oxadiazol-3-yl)-2-(4-fluorophenyl)-1-benzofuran-6-yl]-N-(3-methylbutyl)methanesulfonamide] | – | 6.25 µM | 6.25 µM | 0.053 µM | 3.06 µM | 3.06 µM | 3.06 µM | 10 fold | 0.554 µM | 10 µM | 10 µM |
| CCCc1nc(-c2c(-c3ccc(F)cc3)oc3cc(N(CCC(C)C)S(C)(=O)=O)c(C4CC4)cc23)no1 [Example 153, N-[5-cyclopropyl-2-(4-fluorophenyl)-3-(5-propyl-1,2,4-oxadiazol-3-yl)-1-benzofuran-6-yl]-N-(3-methylbutyl)methanesulfonamide] | 200 µM | – | – | 179 µM | – | – | – | – | – | – | – |
| CS(=O)(=O)Nc1cc2oc(-c3ccc(F)cc3)c(-c3nc(Br)c(Br)[nH]3)c2cc1C1CC1 [Example 165, N-[5-cyclopropyl-3-(4,5-dibromo-1H-imidazol-2-yl)-2-(4-fluorophenyl)-1-benzofuran-6-yl]methanesulfonamide] | 2.7 µM | – | – | 1.5 µM | – | – | – | – | – | – | – |
| CS(=O)(=O)Nc1cc2oc(-c3ccc(F)cc3)c(-c3nc(Cl)c(Cl)[nH]3)c2cc1C1CC1 [Example 163, N-[5-cyclopropyl-3-(4,5-dichloro-1H-imidazol-2-yl)-2-(4-fluorophenyl)-1-benzofuran-6-yl]methanesulfonamide] | 0.555 µM | 5.4 µM | 5.4 µM | 0.212 µM | 7.83 µM | 7.83 µM | 7.83 µM | – | – | 10 µM | 10 µM |
| CS(=O)(=O)Nc1cc2oc(-c3ccc(F)cc3)c(-c3nc(Cl)c[nH]3)c2cc1C1CC1 [Example 164, N-[3-(4-chloro-1H-imidazol-2-yl)-5-cyclopropyl-2-(4-fluorophenyl)-1-benzofuran-6-yl]methanesulfonamide] | 0.906 µM | 1 µM | 1 µM | 0.136 µM | 1 µM | 1 µM | 1 µM | – | – | 10 µM | 10 µM |
